From ChEMBL document CHEMBL5352472, “Mode of action of p-quinone derivatives with trypanocidal activity studied by experimental and in silico models” (Eur J Med Chem, 2023)

Legend:
Trypanosoma brucei [1] = experiment: (§1) Redox activity against blood stream form Trypanosoma brucei 427 expressing redox-sensitive green fluorescent protein fused human glutaredoxin assessed as biosensor oxidation by measuring fluorescence at 2 times EC50 incubated for 1 hr by propidium iodide staining based flow cytometric analysis relative to control; assay type: functional
[2] = Selectivity index, ratio of CC50 for cytotoxicity against mouse J774 cells to EC50 for trypanocidal activity against blood stream form Trypanosoma brucei 427; assay type: toxicity, cell-based; settings: read-out: Ratio CC50/EC50
[3] = Cytotoxicity against mouse J774 cells after 24 hrs by WST-1 assay; assay type: toxicity, cell-based
Trypanosoma cruzi [4] = experiment: Trypanocidal activity against Trypanosoma cruzi DM28c amastigotes expressing red-shifted luciferase gene infected in african green monkey Vero cells incubated at 10 uM for 72 hrs by microplate luminometer analysis relative to control; assay type: functional
Trypanosoma brucei [5] = experiment: Trypanocidal activity against blood stream form Trypanosoma brucei 427 expressing red-shifted luciferase gene measured after 24 hrs by microplate luminometer analysis; assay type: functional, organism-based; settings: Trypanosoma brucei, 427, 24 h
Leishmania infantum [6] = experiment: Antileishmanial activity against Leishmania infantum MHOM/MA/67/ITMAP263 promastigotes expressing red-shifted luciferase gene infected in mouse J774 cells incubated at 20 uM for 24 hrs by microplate luminometer analysis relative to control; assay type: functional
J774 [7] = experiment: Cytotoxicity against mouse J774 cells at 10 uM after 24 hrs by WST-1 assay relative to control; assay type: toxicity, cell-based; settings: j774, 24 h
J774 [8] = experiment: Cytotoxicity against mouse J774 cells at 50 uM after 24 hrs by WST-1 assay relative to control; assay type: toxicity, cell-based; settings: j774, 24 h
Trypanosoma brucei [9] = experiment: as §1, with “at 1” for “at 2”; assay type: functional
Trypanosoma cruzi [10] = experiment: Trypanocidal activity against Trypanosoma cruzi DM28c amastigotes expressing red-shifted luciferase gene infected in african green monkey Vero cells incubated for 72 hrs by microplate luminometer analysis; assay type: functional, organism-based
[11] = Selectivity index, ratio of CC50 for cytotoxicity against mouse J774 cells to EC50 for trypanocidal activity against Trypanosoma cruzi DM28c amastigotes; assay type: toxicity, cell-based; settings: read-out: Ratio CC50/EC50
Leishmania infantum [12] = experiment: Antileishmanial activity against Leishmania infantum MHOM/MA/67/ITMAP263 promastigotes expressing red-shifted luciferase gene infected in mouse J774 cells incubated at 10 uM for 24 hrs by microplate luminometer analysis relative to control; assay type: functional
Leishmania infantum [13] = experiment: Antileishmanial activity against Leishmania infantum MHOM/MA/67/ITMAP263 promastigotes expressing red-shifted luciferase gene infected in mouse J774 cells incubated for 24 hrs by microplate luminometer analysis; assay type: functional, organism-based; settings: MHOM/MA/67/ITMAP263, J774, 24 h
[14] = Selectivity index, ratio of CC50 for cytotoxicity against mouse J774 cells to EC50 for trypanocidal activity against Leishmania infantum MHOM/MA/67/ITMAP263 promastigotes; assay type: toxicity, cell-based; settings: read-out: Ratio CC50/EC50

EC50 (Leishmania infantum [13]) [µM] | Structure (SMILES) | Activity (Trypanosoma brucei [1]) [%] | selectivity ratio [2] | CC50 at 24 h [3] [µM] | Activity (Trypanosoma cruzi [4]) [%] | EC50 (Trypanosoma brucei [5]) [µM] | Activity (Leishmania infantum [6]) [%] | Activity (J774 [7]) [%] | Activity (J774 [8]) [%] | Activity (Trypanosoma brucei [9]) [%] | EC50 (Trypanosoma cruzi [10]) [µM] | selectivity ratio [11] | Activity (Leishmania infantum [12]) [%] | selectivity ratio [14]
– | O=C1C=C(Br)C(=O)c2sc(-c3ccccc3)nc21 | 96.99 | 40 | 61 | 78 | 1.5 | 91 | – | – | – | – | – | – | –
– | O=C1C=CC(=O)c2oc(-c3ccccc3)nc21 | 100 | < 4 | < 10 | – | 2.3 | – | 21 | – | – | – | – | – | –
– | O=C1C(Nc2ccccc2)=C(Br)C(=O)c2sc(-c3ccccc3)nc21 | 85.67 | < 22 | < 10 | – | 0.5 | – | 117 | – | – | – | – | – | –
– | COc1ccc2cc(OC3=CC(=O)c4ccccc4C3=O)ccc2c1 | 59.07 | ~10 | ~50 | – | 5.2 | – | – | 57 | – | – | – | – | –
– | CC(C)(C)c1ccc(OC2=CC(=O)c3ccccc3C2=O)cc1 | – | < 9 | < 50 | – | 5.5 | – | – | 24 | 81.7 | – | – | – | –
– | COc1ccc(OC2=CC(=O)c3nc(-c4ccccc4)sc3C2=O)cc1 | 89.22 | 43 | 78 | – | 1.8 | 90 | – | – | – | 1.1 | 71 | – | –
– | O=C1C(Nc2ccccc2)=C(Br)C(=O)c2oc(-c3ccccc3)cc21 | – | 63 | 57 | – | 0.9 | – | – | – | 71.31 | 0.8 | 71 | 102 | –
– | O=C1C=C(Oc2ccccc2)C(=O)c2oc(-c3ccccc3)nc21 | 94.92 | 14 | 46 | – | 3.3 | – | – | – | – | – | – | – | –
– | O=C1C=C(Oc2ccc(F)cc2)C(=O)c2sc(-c3ccccc3)nc21 | 92.06 | < 2 | < 10 | – | 5 | – | 5 | – | – | – | – | – | –
– | O=C1C=C(Br)C(=O)c2oc(-c3ccccc3)nc21 | 20.95 | < 6 | < 10 | – | 1.6 | – | 10 | – | – | – | – | – | –
– | O=C1C=C(Oc2ccccc2)C(=O)c2oc(-c3ccccc3)cc21 | – | 13 | 37 | – | 2.9 | – | – | – | 85.4 | – | – | – | –
– | CC1CS(=O)(=O)CCN1/N=C/c1ccc([N+](=O)[O-])o1 (stereo not given) [NIFURTIMOX] | – | 19 | 100 | – | 5.3 | 137 | – | – | – | 0.7 | 142 | – | –
– | O=C1C=C(Br)C(=O)c2oc(-c3ccccc3)cc21 | – | 2 | 59 | – | 38 | – | – | – | 99.25 | – | – | – | –
– | O=C1C=C(Oc2ccccc2)C(=O)c2sc(-c3ccccc3)nc21 | – | < 6 | < 10 | – | 1.8 | – | 40 | – | 95.51 | – | – | – | –
– | O=C1C=CC(=O)c2sc(-c3ccccc3)nc21 | 99.42 | < 8 | < 10 | – | 1.3 | – | 0 | – | – | – | – | – | –
– | O=C1C(Nc2ccccc2)=C(Br)C(=O)c2oc(-c3ccccc3)nc21 | 95.87 | < 5 | < 10 | – | 1.9 | – | 0.5 | – | – | – | – | – | –
– | O=C1C=C(Oc2ccc(CO)cc2)C(=O)c2ccccc21 | 87.33 | ~11 | ~50 | – | 4.6 | – | – | 49 | – | – | – | – | –
38.2 | CCCCCCCCCCCCCCCCOP(=O)([O-])OCC[N+](C)(C)C [MILTEFOSINE] | – | – | 50 | – | – | – | – | – | – | – | – | – | ~1
0.035 | C[C@@H]1[C@H](O)[C@@H](C)/C=C/C=C/C=C/C=C/C=C/C=C/C=C/[C@H](O[C@@H]2O[C@H](C)[C@@H](O)[C@H](N)[C@@H]2O)C[C@@H]2O[C@](O)(C[C@@H](O)C[C@@H](O)[C@H](O)CC[C@@H](O)C[C@@H](O)CC(=O)O[C@H]1C)C[C@H](O)[C@H]2C(=O)O [AMPHOTERICIN B] | – | – | 9 | – | – | – | – | – | – | – | – | – | 257
– | O=C1C=CC(=O)c2oc(-c3ccccc3)cc21 | 95.33 | 44 | 118 | 88 | 2.7 | – | – | – | – | – | – | 129 | –
– | O=C1C=C(Oc2ccc3cc(O)ccc3c2)C(=O)c2ccccc21 | 40.54 | ~14 | ~50 | – | 4.3 | – | – | 63 | – | – | – | – | –
– | O=C1C=C(Oc2ccc3cccnc3c2)C(=O)c2ccccc21 | 7.92 | < 13 | < 50 | – | 3.8 | – | – | 37 | – | – | – | – | –
